The text below walks through data of ChEMBL document CHEMBL1156458, “chi-Conotoxin and tricyclic antidepressant interactions at the norepinephrine transporter define a new transporter model” (J Biol Chem, 2007).

For this assay, the target named is Sodium-dependent dopamine transporter (Homo sapiens, UniProt Q01959, F472L). Description: Inhibition of [3H]dopamine uptake at human DAT F472L mutant expressed in african green monkey COS1 cells after 48 hrs. It is filed as cell-based, COS-1.
Sodium-dependent dopamine transporter, sequence (Q01959 whole entry F472L): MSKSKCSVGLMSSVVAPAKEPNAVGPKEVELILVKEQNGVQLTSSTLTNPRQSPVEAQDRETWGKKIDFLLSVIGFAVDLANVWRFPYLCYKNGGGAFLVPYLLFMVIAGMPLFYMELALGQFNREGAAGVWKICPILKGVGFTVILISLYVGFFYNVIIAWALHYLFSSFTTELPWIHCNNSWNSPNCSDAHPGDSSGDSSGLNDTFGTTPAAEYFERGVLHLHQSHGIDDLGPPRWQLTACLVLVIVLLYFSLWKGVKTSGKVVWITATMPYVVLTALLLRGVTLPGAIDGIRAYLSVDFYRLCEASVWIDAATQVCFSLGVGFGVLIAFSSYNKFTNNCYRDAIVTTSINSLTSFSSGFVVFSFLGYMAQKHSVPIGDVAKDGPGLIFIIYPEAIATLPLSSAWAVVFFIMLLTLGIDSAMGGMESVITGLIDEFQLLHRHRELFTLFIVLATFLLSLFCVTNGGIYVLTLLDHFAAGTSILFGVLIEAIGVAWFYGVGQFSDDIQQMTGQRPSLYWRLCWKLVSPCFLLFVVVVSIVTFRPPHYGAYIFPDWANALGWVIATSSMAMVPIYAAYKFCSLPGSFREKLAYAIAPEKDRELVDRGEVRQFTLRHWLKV

What is called IC50 is the midpoint of a concentration-inhibition curve. On to `CC(C)C[C@@H]1NC(=O)[C@H](CCCCN)NC(=O)[C@H](Cc2ccc(O)cc2)NC(=O)CNC(=O)[C@@H]2CSSC[C@H](NC1=O)C(=O)N[C@@H](Cc1cnc[nH]1)C(=O)N1C[C@H](O)C[C@H]1C(=O)N[C@H](C(=O)O)CSSC[C@H](NC(=O)[C@@H](NC(=O)CNC(=O)[C@@H](N)CC(N)=O)C(C)C)C(=O)N2`, for which the half-maximal inhibitory concentration (IC50) was 200 µM.
